Assay results from US20070249555A1, “Use of Atp Analogues for Treatment of Cardiovascular Diseases” (INSTITUT NATIONAL DE LA SANTE ET DE LA RECHERCHE MEDICALE …, priority 2004, published 2007).

Columns and labels:
human P2Y13 receptor = molecular target: T1, human P2Y13 receptor (Homo sapiens, UniProt Q9BPV8); test: HDL3 internalization by HepG2 cells after P2Y13 receptor silencing by siRNA; assay type: cell-based; details: 75 μg/ml 125I-HDL3, ADP 100 nM, AR-C69931MX 100 nM
T1 construct: host or cells: HepG2
T1 sequence (Q9BPV8 1-354): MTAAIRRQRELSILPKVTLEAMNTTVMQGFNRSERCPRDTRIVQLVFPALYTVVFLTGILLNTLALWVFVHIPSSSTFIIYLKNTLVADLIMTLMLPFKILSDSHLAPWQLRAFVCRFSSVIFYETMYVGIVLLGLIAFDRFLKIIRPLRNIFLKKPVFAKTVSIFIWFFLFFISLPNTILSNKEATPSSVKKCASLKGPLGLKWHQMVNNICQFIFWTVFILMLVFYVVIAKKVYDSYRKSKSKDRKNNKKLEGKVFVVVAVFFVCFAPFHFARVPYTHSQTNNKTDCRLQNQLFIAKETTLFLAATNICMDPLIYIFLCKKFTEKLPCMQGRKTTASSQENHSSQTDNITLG
Description: Cells were transiently transfected with siRNA designated to human P2Y13 receptor (column c, d, e). 48 hours later, cells were incubated for 10 minutes at 37° C. with 75 μg/ml ^125I-HDL3 without (control) or with ADP 100 nM (a and c), AR-C69931MX 100 nM (b and d), PBS (e) (n>5); (*) p<0.05 (unpaired t-test).
(§1) Internalization assays were performed as described in Guendouzi et al., (Biochemistry, 1998, 37: 14974-80) on HepG2 cells, obtained from the American Type Culture Collection ([…]). Cells were incubated for 10 minutes at 37° C. with 75 μg/ml of either ^125I-TG-HDL2, ^125I-HDL3 or ^125I-LDL. After washing and dissociation at 4° C. in phosphate buffered saline (PBS), cell radioactivity was determined using a Wallac 1261 multigamma apparatus.
The silencing of the different P2Y receptors were carried-out using the siRNA technique. The siRNA sequenced targeting human P2Y13 receptor (Gene Bank GB/EMBL/DDBJ accession number AF295368) was from position 406 or 359 relative to the start codon. […]
Results are expressed as a percentage of internalization with respect to the control value (set at 0). […]

HepG2 cells = test: TG-HDL2 internalization by HepG2 cells; assay type: cell-based, human; details: 10 min at 37° C.
Description: Cells were incubated for 10 minutes at 37° C. with 75 μg/ml^125I-TG-HDL2 without (control) or with apolipoprotein A-I 10 μg/ml (a), ADP 100 nM (b), AR-C69931MX 100 nM (c), ADP 100 nM+AR-C69931MX 100 nM (d), ADP 100 nM+[…] 100 μM (e), ADP 100 nM+MRS2179 10 μM (f). […] Internalization assays were performed as described in Guendouzi et al., (Biochemistry, 1998, 37: 14974-80) on HepG2 cells, obtained from the American Type Culture Collection ([…]). Cells were incubated for 10 minutes at 37° C. with 75 μg/ml of either ^125I-TG-HDL2, ^125I-HDL3 or ^125I-LDL. After washing and dissociation at 4° C. in phosphate buffered saline (PBS), cell radioactivity was determined using a Wallac 1261 multigamma apparatus. Prior experiments, cells were plated in polylysine-coated 24-multiwell plates (Falcon) at 4×10^4 cells per well. Cells were grown in Dulbecco's modified Eagles medium supplemented with 10% fetal calf serum, 100 units/ml penicillin, and 100 μg/ml streptomycin at 37° C. in a 5% CO2 and 95% air incubator. Medium was changed every 2 or 3 days, and the cells were subcultured every 7-8 days. Results are expressed as a percentage of internalization with respect to the control value (set at 0). Control corresponded to a basal value of internalization, amounting to 400 ng, 300 ng, 200 ng of TG-HDL2, HDL3 and LDL per mg of cells protein respectively for 10 minutes. Data as a mean ±SEM of at least 7, 5, 6 independent experiments, for TG-HDL2, HDL3 and LDL respectively.

human P2Y1 receptor = molecular target: T2, human P2Y1 receptor (Homo sapiens, UniProt P47900); test: TG-HDL2 internalization by HepG2 cells after P2Y1 receptor silencing by siRNA; assay type: cell-based; details: HepG2, pool of 4 P2Y1 siRNAs 100 nM, 48 h; apoA-I 10 μg/ml, ADP 100 nM, AR-C69931MX 100 nM
T2 construct: host or cells: HepG2
T2 sequence (P47900 whole entry): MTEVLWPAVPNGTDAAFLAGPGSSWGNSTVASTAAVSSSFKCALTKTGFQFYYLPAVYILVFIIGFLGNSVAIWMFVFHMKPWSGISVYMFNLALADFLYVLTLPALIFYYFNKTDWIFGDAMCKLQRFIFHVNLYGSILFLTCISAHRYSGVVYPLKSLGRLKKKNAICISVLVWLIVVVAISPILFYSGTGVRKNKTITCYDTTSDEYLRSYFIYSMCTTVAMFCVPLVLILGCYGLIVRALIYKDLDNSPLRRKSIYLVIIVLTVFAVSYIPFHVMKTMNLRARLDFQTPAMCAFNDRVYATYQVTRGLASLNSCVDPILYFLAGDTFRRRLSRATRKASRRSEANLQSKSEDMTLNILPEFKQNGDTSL
Description: HepG2 cells were transiently transfected with siRNA designated to human P2Y1 receptor (columns d, e, f, g) or with non specific siRNA as control (a, b, c). 48 hours later, cells were incubated for 10 minutes at 37° C. with 75 μg/ml ^125I-TG HDL2 without (control) or with apolipoprotein A-I 10 μg/ml (a and d), ADP 100 nM (b and e), AR-C69931MX 100 nM (c and f), PBS (g). Data are expressed as a percentage of internalized radioactivity with respect to the control value (set as 0) (n>5); (*) p<0.05 (unpaired t-test).
as §1
The silencing of the different P2Y receptors were carried-out using the siRNA technique. The siRNA sequenced targeting human P2Y13 receptor (Gene Bank GB/EMBL/DDBJ accession number AF295368) was from position 406 or 359 relative to the start codon. The siRNA duplex (21-nt-RNAs) in deprotected and desalted form, the siRNA targeting human P2Y1 receptor (a mix of 4 siRNAs, M-005689), and the non-specific control siRNA (D-001206-01) were purchased from Dharmacon Inc. Subconfluent HepG2 cells were transiently transfected with siRNAs (final concentration, 100 nM) using Oligofectamine™ according to the manufacturer's protocole (Invitrogen). Cells were usually assayed 48 hours after transfection. Specific silencing effect was confirmed by at least three independent experiments.
Results are expressed as a percentage of internalization with respect to the control value (set at 0). Control corresponded to a basal value of internalization, amounting to 400 ng, 300 ng, 200 ng of TG-HDL2, HDL3 and LDL per mg of cells protein respectively for 10 minutes. […]

| Compound | effect of P2Y13 receptor silencing on HDL3 internalization after stimulation (human P2Y13 receptor) | internalization of 125I-TG-HDL2 by HepG2 cells, increase above control cells (HepG2 cells; 75 μg/ml 125I-TG-HDL2, apoA-I 10 μg/ml, ADP 100 nM, AR-C69931MX 100 nM alone) [%] | effect of P2Y1 receptors silencing on the stimulation of TG-HDL2 endocytosis (human P2Y1 receptor) | ADP-dependent TG-HDL2 internalization, increase above control cells (HepG2 cells; ADP 100 nM + AR-C69931MX 100 nM) |
| --- | --- | --- | --- | --- |
| Nc1ncnc2c1ncn2[C@@H]1O[C@H](COP(=O)(O)OP(=O)(O)O)[C@@H](O)[C@H]1O [ADP, adenosine diphosphate, reference compound] | strong inhibition | 20 | no effect |  |
| CSCCNc1nc(SCCC(F)(F)F)nc2c1ncn2[C@@H]1O[C@H](COP(=O)(O)OP(=O)(O)C(Cl)(Cl)P(=O)(O)O)[C@@H](O)[C@H]1O [AR-C69931MX, N-[2-(methylthio)ethyl]-2-[(3,3,3-trifluoropropyl)thio]-5′-adenylic acid, monoanhydride with dichloromethylenebisphosphonic acid] | strong inhibition |  | no effect | over 30% |
